Source: patent publication EP1900360A1, “Homer a new target of treating psychiatric disorders” (Abbott GmbH & Co. KG, priority 1998, dated 2000)

Experiments:
homer mRNA = experiment: Homer gene expression in brain by in situ hybridization histochemistry; type: in vivo, Sprague-Dawley rats; details: for Homer gene expression induced by treatment with amphetamine: brain frontal cortex, amphetamine plus compound
Description: Adult Sprague-Dawley rats (250 g) were maintained in normal environmental conditions with free access to food and water ab libitum. Animals were treated with haloperidol (0.5 and 5 mg/kg) or saline. Naive (non-treated) animals were used as additional controls. Animals were also treated with amphetamine or with amphetamine and MPEP or SIB-1893 as described in example 18b. The animals were sacrificed by decapitation 90 minutes after treatment. Whole brain was rapidly removed from the skull, frozen in dry ice and stored at -30°C. Rat brain sections (15 μm) were obtained at -20°C in a cryostat, mounted in gelatine-coated slides and stored at -30°C until used. Olygonucleotide sequences 40 base length were selected from the homer rat gene sequence published in the GENEBANK (accession number: U92079). Antisense oligonucleotide homerAT ([NT]) was complementary to bases 559 to 599. Antisense oligonucleotide homerBT ([NT]) was complementary to bases 894-934. The corresponding sense oligonucleotides (homerAS and homerBS) were used as control probes. Synthesis was performed in a 395 Applied Biosystems DNA Synthesizer. Purified oligonucleotides were dissolved in DEPC-treated water and stored at -30°C until use. Labelling of synthetic oligoprobes was performed using a deoxynucleotidyl-transferase (TdT) labelling kit (NEP-100, NEN, Bad-Homburg, Germany). Briefly, 5 pmol of probe were incubated (2 hr) with TdT (36 units) in presence of 50 pmol of (^35S] dATP (NEN) and Cl2Co. […] Labelling efficacy was checked by paper chromatography in phosphate buffer system. Homer gene expression in rat brain was studied using in situ hybridization techniques well known in the art. In situ hybridization was performed as previously described (Garcia-Ladona et al., 1994). Briefly, Tissue sections were fixed with paraformaldehyde in PBS and treated (min) with pronase (0.25 mg/l), rapidly washed, dehydrated by consecutive incubation with 60%, 80%, 90% and 100% ethanol, rapidly dried and used for hybridization. […]

[1] = system: methamphetamine-induced hyperactivity; experiment: Methamphetamine antagonism (methamphetamine-induced hyperactivity, measurement of locomotor activity); type: in vivo, Mice (NMRI); details: drug ip 30 min prior to methamphetamine 1 mg/kg po; counts 15 to 60 min after start of measurement
Description: Methamphetamine antagonism was tested by recording methamphetamine-induced hyperactivity (measurement of locomotor activity). Mice (NMRI, 21-26 g; female) received drug or vehicle, intraperitoneally, 30 min prior to methamphetamine (MET, 1 mg/kg po). Locomotor activity was recorded in cages equipped with light beams (2 mice/cage/dose) for 1 h, starting 30 min after MET. For calculation of drug effects the counts recorded during the time period of 15 to 60 min after start of the measurement were selected. The control value was calculated as the difference between the counts recorded for the methamphetamine group and the vehicle-treated group during the same time period.

cataleptic syndrome = experiment: Cataleptogenic effects (cataleptic syndrome, method of Wirth et al.); type: in vivo, rats, Sprague-Dawley; details: dose 100 mg/kg ip; cataleptic animals / animals per dose; tested 30 to 300 min after administration
Description: The cataleptic syndrome was tested according to the method described by Wirth et al. (Arch. Int. Pharmacodyn. Ther. 115, 1-31, 1958). The animals (male rats, Sprague-Dawley bodyweight 210-225 g; n/dose=4) were regarded as cataleptic if they remained in an abnormal posture for more than 15 sec, i.e. one foreleg an a 9-cm-high piece of cork. The animals were tested 30m 60, 120, 180 and 300 min after intraperitoneal administration of the test compound.

| Structure (SMILES) | homer mRNA transcripts (in situ hybridization images) (homer mRNA; haloperidol 0.5 and 5 mg/kg vs controls, rat brain, 90 minutes after treatment) | Methamphetamine antagonism ED50 [1] [mg/kg ip] | Cataleptogenic effect [x/n] at dose [mg/kg ip] (cataleptic syndrome) | Homer gene expression induced by treatment with amphetamine (homer mRNA) |
| --- | --- | --- | --- | --- |
| O=C(CCCN1CCC(O)(c2ccc(Cl)cc2)CC1)c1ccc(F)cc1 [haloperidol] | higher levels in haloperidol treated animals than in controls |  |  |  |
| Cc1cccc(C=Cc2ccccc2)n1 [BSF 470213, 2-methyl-6-(2-phenylethenyl)-pyridine] |  | 53.4 | 0/4 at dose 100 | reduced |
| Cc1cccc(C#Cc2ccccc2)n1.Cl [BSF 470214, 2-methyl-8-(phenylethynyl)-pyridine hydrochloride] |  | 51.2 | 0/4 at dose 100 | reduced |
